From patent US20070213394A1 (priority 2004, published 2007)
Read-outs that look alike come from different tables or passages of the source.

Tests used:
[1] = target: T1, human kappa opioid receptor (Homo sapiens, UniProt P41145); test: biochemical; type: binding
T1 construct: expressed in transfected cells; host or cells: Chinese hamster ovary cells (CHO-hKOR), membranes

[2] = target: T1, human kappa opioid receptor; test: biochemical; conditions: for Emax: 1 h, read-out: Efficacy

T1 sequence (P41145 whole entry): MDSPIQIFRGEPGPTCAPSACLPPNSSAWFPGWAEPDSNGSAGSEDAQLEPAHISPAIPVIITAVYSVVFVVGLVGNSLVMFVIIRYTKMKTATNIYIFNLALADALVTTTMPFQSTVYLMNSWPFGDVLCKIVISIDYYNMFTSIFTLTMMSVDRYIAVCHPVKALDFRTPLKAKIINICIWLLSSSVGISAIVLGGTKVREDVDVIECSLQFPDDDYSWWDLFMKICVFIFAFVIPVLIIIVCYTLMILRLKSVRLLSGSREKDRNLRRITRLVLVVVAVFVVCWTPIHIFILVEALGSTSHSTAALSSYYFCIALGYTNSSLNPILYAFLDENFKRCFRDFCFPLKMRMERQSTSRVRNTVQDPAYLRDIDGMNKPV

Row | Molecule | Emax [2] [%] | Ki [1] [µM] | also measured
1 | 2-(N,N-dimethylamino)-salvinorin [Compound 19] |  |  | Ki ([1]; read-out: Ki): 0.0909 ± 0.0025 µM; EC50 ([2]; read-out: EC50): 0.343 ± 0.012 µM
2 | 8-epi-O-demethyl-18-deoxysalvinorin A [C8-epi-compound 222] |  |  | Ki ([1]; read-out: Ki): 1 ± 0.269 µM
3 | CNC(=O)C1CC(OC(C)=O)C(=O)C2C1(C)CCC1C(=O)OC(c3ccoc3)CC12C (stereo not drawn) [C8-epi-compound 219, 8-epi-C(4)-N-methylamide salvinorin A] |  |  | Ki ([1]; read-out: Ki): 1.39 ± 0.218 µM
4 | CNCC1CC(OC(C)=O)C(=O)C2C1(C)CCC1C(=O)OC(c3ccoc3)CC12C (stereo not drawn) [C8-epi-compound 224, 8-epi-4-(N-methylamino)methyl salvinorin A] |  |  | Ki ([1]; read-out: Ki): > 10 µM
5 | CCNCC1CC(OC(C)=O)C(=O)C2C1(C)CCC1C(=O)OC(c3ccoc3)CC12C (stereo not drawn) [C8-epi-compound 225, 8-epi-4-(N-ethylamino)methyl salvinorin A] |  |  | Ki ([1]; read-out: Ki): > 10 µM
6 | CC(=O)OC1CC(CN(C)C)C2(C)CCC3C(=O)OC(c4ccoc4)CC3(C)C2C1=O (stereo not drawn) [C8-epi-compound 226, 8-epi-4-(N,N-dimethylamino)methyl salvinorin A] |  |  | Ki ([1]; read-out: Ki): > 10 µM
7 | COC(=O)[C@@H]1C[C@H](O)C(=O)C2[C@@]1(C)CC[C@H]1C(=O)O[C@H](c3ccoc3)C[C@]21C (stereo partly shown) [Compound 1, salvinorin B] | 98 |  | 
8 | CCC(=O)O[C@H]1C[C@@H](C(=O)OC)[C@]2(C)CC[C@H]3C(=O)O[C@H](c4ccoc4)C[C@]3(C)C2C1=O (stereo partly shown) [Compound 2, 2-propionyl-salvinorin B] | 94 | 0.0072 ± 0.0005 | EC50 [2]: 0.0204 ± 0.0034 µM
9 | CCCC(=O)O[C@H]1C[C@@H](C(=O)OC)[C@]2(C)CC[C@H]3C(=O)O[C@H](c4ccoc4)C[C@]3(C)C2C1=O (stereo partly shown) [Compound 3, 2-butyryl-salvinorin B] | 97 | 0.0049 ± 0.0006 | EC50 [2]: 0.0099 ± 0.0006 µM
10 | COC(=O)[C@@H]1C[C@H](OC)C(=O)C2[C@@]1(C)CC[C@H]1C(=O)O[C@H](c3ccoc3)C[C@]21C (stereo partly shown) [Compound 4, 2-methoxy-salvinorin B] | 98 | 0.22 ± 0.012 | EC50 [2]: 0.389 ± 0.076 µM
11 | COC(=O)[C@@H]1C[C@H](O)C(=O)C2[C@@]3(C)C[C@@H](c4ccoc4)OC(=O)[C@H]3CC[C@]21C (stereo partly shown) [Compound 5, Episalvinorin B] | 102 |  | 
12 | COC(=O)[C@@H]1C[C@H](OC(N)=O)C(=O)C2[C@@]1(C)CC[C@H]1C(=O)O[C@H](c3ccoc3)C[C@]21C (stereo partly shown) [Compound 9, 2-(O-formamide)-salvinorin B] | 99 | 0.0032 ± 0.0002 | EC50 [2]: 0.0062 ± 0.0014 µM
13 | CNC(=O)O[C@H]1C[C@@H](C(=O)OC)[C@]2(C)CC[C@H]3C(=O)O[C@H](c4ccoc4)C[C@]3(C)C2C1=O (stereo partly shown) [Compound 10, 2-(O—(N-methyl)formamide)-salvinorin B] | 81 | 0.083 ± 0.009 | EC50 [2]: 0.201 ± 0.01 µM
14 | CN[C@@H]1C[C@@H](C(=O)OC)[C@]2(C)CC[C@H]3C(=O)O[C@H](c4ccoc4)C[C@]3(C)C2C1=O (stereo partly shown) [Compound 11, 2-(N-methylamino)-salvinorin] |  | > 10 | 
15 | COC(=O)[C@@H]1C[C@H](OC(=O)CN(C)C)C(=O)C2[C@@]1(C)CC[C@H]1C(=O)O[C@H](c3ccoc3)C[C@]21C (stereo partly shown) [Compound 12, 2-(2′-(N,N-dimethylamino)acetate) salvinorin B] |  | > 10 | 
16 | CCCCO[C@H]1C[C@@H](C(=O)OC)[C@]2(C)CC[C@H]3C(=O)O[C@H](c4ccoc4)C[C@]3(C)C2C1=O (stereo partly shown) [Compound 13, 2-n-butoxy-salvinorin B] |  | 0.0358 ± 0.0051 | EC50 [2]: 0.104 ± 0.017 µM
17 | C=CCO[C@H]1C[C@@H](C(=O)OC)[C@]2(C)CC[C@H]3C(=O)O[C@H](c4ccoc4)C[C@]3(C)C2C1=O (stereo partly shown) [Compound 14, 2-allyloxy-salvinorin B] | 106 | 0.0601 ± 0.0051 | EC50 [2]: 0.145 ± 0.033 µM
18 | CCO[C@H]1C[C@@H](C(=O)OC)[C@]2(C)CC[C@H]3C(=O)O[C@H](c4ccoc4)C[C@]3(C)C2C1=O (stereo partly shown) [Compound 15, 2-ethoxy-salvinorin B] | 103 |  | 
19 | CCCO[C@H]1C[C@@H](C(=O)OC)[C@]2(C)CC[C@H]3C(=O)O[C@H](c4ccoc4)C[C@]3(C)C2C1=O (stereo partly shown) [Compound 16, 2-propoxy-salvinorin B] | 100 | 0.0287 ± 0.003 | EC50 [2]: 0.0674 ± 0.0099 µM
20 | COC(=O)[C@@H]1C[C@H](OCc2ccccc2)C(=O)C2[C@@]1(C)CC[C@H]1C(=O)O[C@H](c3ccoc3)C[C@]21C (stereo partly shown) [Compound 17, 2-benzyloxy-salvinorin B] |  | 0.0757 ± 0.0059 | EC50 [2]: 0.161 ± 0.014 µM
21 | CCN[C@@H]1C[C@@H](C(=O)OC)[C@]2(C)CC[C@H]3C(=O)O[C@H](c4ccoc4)C[C@]3(C)C2C1=O (stereo partly shown) [Compound 18, 2-(N-ethylamino)-salvinorin] |  | 0.0289 ± 0.001 | EC50 [2]: 0.0689 ± 0.0053 µM
22 | CCNC(=O)O[C@H]1C[C@@H](C(=O)OC)[C@]2(C)CC[C@H]3C(=O)O[C@H](c4ccoc4)C[C@]3(C)C2C1=O (stereo partly shown) [Compound 20, 2-(O—(N-ethyl)formamide)-salvinorin B] |  | 0.462 ± 0.02 | EC50 [2]: > 1 µM
23 | COC(=O)[C@@H]1C[C@H](OC(=O)[C@H](C)N)C(=O)C2[C@@]1(C)CC[C@H]1C(=O)O[C@H](c3ccoc3)C[C@]21C (stereo partly shown) [Compound 25] |  | > 10 | 
24 | COC(=O)[C@@H]1C[C@H](OC(=O)CNC(C)=O)C(=O)C2[C@@]1(C)CC[C@H]1C(=O)O[C@H](c3ccoc3)C[C@]21C (stereo partly shown) [Compound 26] |  | > 10 | 
25 | COC(=O)[C@@H]1C[C@H](OC(=O)CN(C)C)C(=O)C2[C@@]1(C)CC[C@H]1C(=O)O[C@H](c3ccoc3)C[C@]21C (stereo partly shown) [Compound 27] |  | > 10 | 
26 | CCOC(=O)C1CC(OC(C)=O)C(=O)C2C1(C)CCC1C(=O)OC(c3ccoc3)CC12C (stereo not shown) [Compound 33] |  | > 10 | 

Row | Molecule | Emax [2] [%] | Ki [1] [µM] | also measured
27 | CCCCOC(=O)C1CC(OC(C)=O)C(=O)C2C1(C)CCC1C(=O)OC(c3ccoc3)CC12C (stereo not shown) [Compound 35] |  | > 10 | 
28 | CC(=O)OC1CC(C(=O)OCc2ccccc2)C2(C)CCC3C(=O)OC(c4ccoc4)CC3(C)C2C1=O (stereo not shown) [Compound 37] |  | > 10 | 
29 | CCCCCOC(=O)C1CC(OC(C)=O)C(=O)C2C1(C)CCC1C(=O)OC(c3ccoc3)CC12C (stereo not shown) [Compound 40] |  | > 10 | 
30 | CCCCCCCCOC(=O)C1CC(OC(C)=O)C(=O)C2C1(C)CCC1C(=O)OC(c3ccoc3)CC12C (stereo not shown) [Compound 42] |  | > 10 | 
31 | C#CCCOC(=O)C1CC(OC(C)=O)C(=O)C2C1(C)CCC1C(=O)OC(c3ccoc3)CC12C (stereo not shown) [Compound 53] |  | > 10 | 
32 | CCCOC(=O)C1CC(OC(C)=O)C(=O)C2C1(C)CCC1C(=O)OC(c3ccoc3)CC12C (stereo not shown) [Compound 54] |  | > 10 | 
33 | C=CCOC(=O)C1CC(OC(C)=O)C(=O)C2C1(C)CCC1C(=O)OC(c3ccoc3)CC12C (stereo not shown) [Compound 56] |  | > 10 | 
34 | COC(=O)[C@@H]1C[C@@H](N(C)C(C)=O)C(=O)C2[C@@]1(C)CC[C@H]1C(=O)O[C@H](c3ccoc3)C[C@]21C (stereo partly drawn) [Compound 80, 2-epi-(N-methylacetamide)-salvinorin] | 106 |  | 
35 | CC(=O)OC1CC(C(=O)NC(C)C(=O)OCc2ccccc2)C2(C)CCC3C(=O)OC(c4ccoc4)CC3(C)C2C1=O (stereo not shown) [Compound 99] |  | > 10 | 
36 | CC(=O)OC1CC(C(=O)N2CCCC2C(=O)OCc2ccccc2)C2(C)CCC3C(=O)OC(c4ccoc4)CC3(C)C2C1=O (stereo not shown) [Compound 104] |  | > 10 | 
37 | CC(=O)OC1CC(C(=O)NC(Cc2cnc[nH]2)C(=O)OCc2ccccc2)C2(C)CCC3C(=O)OC(c4ccoc4)CC3(C)C2C1=O (stereo not shown) [Compound 105] |  | > 10 | 
38 | CCC(=O)OC1CC(C(=O)OC)C2(C)CCC3C(=O)OC(c4ccoc4)CC3(C)C2C1=O (stereo not drawn) [Compound 203b, 2-epi-salvinorin B propionate] |  | 0.641 ± 0.122 | 
39 | CCCC(=O)OC1CC(C(=O)OC)C2(C)CCC3C(=O)OC(c4ccoc4)CC3(C)C2C1=O (stereo not drawn) [Compound 204b, 2-epi-salvinorin B butyrate] |  | 0.665 ± 0.1 | 
40 | COC(=O)C1CC(OC)C(=O)C2C1(C)CCC1C(=O)OC(c3ccoc3)CC12C (stereo not drawn) [Compound 205b, 2-epi-(O-methyl)-salvinorin B] |  | > 10 | 
41 | CCOC1CC(C(=O)OC)C2(C)CCC3C(=O)OC(c4ccoc4)CC3(C)C2C1=O (stereo not drawn) [Compound 206b, 2-epi-(O-ethyl)-salvinorin B] |  | > 10 | 
42 | CCC(=O)N[C@H]1C[C@@H](C(=O)OC)[C@]2(C)CC[C@H]3C(=O)O[C@H](c4ccoc4)C[C@]3(C)[C@H]2C1=O [Compound 213a, 2-(propionamide)-salvinorin] | 109 |  | 
43 | CCC(=O)N[C@@H]1C[C@@H](C(=O)OC)[C@]2(C)CC[C@H]3C(=O)O[C@H](c4ccoc4)C[C@]3(C)[C@H]2C1=O [Compound 213b, 2-epi-(propionamide)-salvinorin] | 102 |  | 
44 | CCC(=O)N(C)C1CC(C(=O)OC)C2(C)CCC3C(=O)OC(c4ccoc4)CC3(C)C2C1=O (stereo not shown) [Compound 215a, 2-(N-methylpropionamide)-salvinorin] |  | 0.0016 ± 0.0001 | 
45 | CCN(C(C)=O)[C@H]1C[C@@H](C(=O)OC)[C@]2(C)CC[C@H]3C(=O)O[C@H](c4ccoc4)C[C@]3(C)[C@H]2C1=O [Compound 216a, 2-(N-ethylacetamide)-salvinorin] | 104 |  | 
46 | CCN(C(C)=O)[C@@H]1C[C@@H](C(=O)OC)[C@]2(C)CC[C@H]3C(=O)O[C@H](c4ccoc4)C[C@]3(C)[C@H]2C1=O [Compound 216b, 2-epi-(N-ethylacetamide)-salvinorin] | 95 |  | 
47 | CCC(=O)N(CC)[C@H]1C[C@@H](C(=O)OC)[C@]2(C)CC[C@H]3C(=O)O[C@H](c4ccoc4)C[C@]3(C)[C@H]2C1=O [Compound 217a, 2-(N-ethylpropionamide)-salvinorin] | 100 |  | 
48 | CCC(=O)N(CC)[C@@H]1C[C@@H](C(=O)OC)[C@]2(C)CC[C@H]3C(=O)O[C@H](c4ccoc4)C[C@]3(C)[C@H]2C1=O [Compound 217b, 2-epi-(N-ethylpropionamide)-salvinorin] | 96 |  | 
49 | CNC(=O)[C@@H]1C[C@H](OC(C)=O)C(=O)[C@H]2[C@@]1(C)CC[C@H]1C(=O)O[C@H](c3ccoc3)C[C@]21C [Compound 219, C(4)-N-methylamide salvinorin A] |  |  | Ki ([1]; read-out: Ki): > 1 µM
50 | CC(=O)OC1CC(C(=O)N(C)C)C2(C)CCC3C(=O)OC(c4ccoc4)CC3(C)C2C1=O (stereo not shown) [Compound 221, C(4)-N,N-dimethylamide salvinorin A] |  | > 10 | 
51 | CC(=O)O[C@H]1C[C@@H](CO)[C@]2(C)CCC3C(=O)O[C@H](c4ccoc4)C[C@]3(C)[C@H]2C1=O (stereo partly shown) [Compound 222, O-demethyl-18-deoxysalvinorin A] |  | > 10 | 
